Assay results as given in US20070244076A1, “Site and Rate Selective Prodrug Formulations of D609 with Antioxidant and Anticancer Activity” (priority 2003, published 2007).
Marks after values point to notes of the source that are not given here.

What was measured:
U937 cells [1] = test: U937 apoptosis, sub-G0/1 cells by flow cytometry; format: cell-based, Human; settings: 177 μM, 24 h
Procedure: Apoptosis Assays: U937 cells (5×10^5/ml) were cultured with vehicle (0.5% DMSO) or 177 μM D609 or prodrug 2. After 24 h incubation, the cells were harvested, washed and then fixed in 70% ethanol at 4° C. for 24 h. They were stained with a PI staining solution (PBS containing PI 50 μg/ml; RNase A 100 U/ml; and 0.1 mM EDTA) for 2 h at room temperature before flow cytometric analysis (10,000 events/sample). The percentage of apoptotic cells was determined by quantification of the sub-G0/1 population using a FACS Caliber (Becton Dickinson, San Jose, Calif.).

[2] = tested on: STM91-01 malignant rhabdoid tumor cells; test: MTT cell viability, STM91-01 cells; format: cell-based, human
U937 cells [3] = test: MTT cell viability, U937 cells; format: cell-based, Human; settings: for LD50: 48 h
Procedure: Cell viability assay: The MTT assay was used to quantify viable U937 cells (Hansen et al., 1989). U937 cells were harvested, washed and resuspended in complete medium at a concentration of 5×10^5 cells per ml. Aliquots (100 μl) of the cell suspension were added to wells of a 96-well microtiter plate with the addition of 100 μl of complete medium (control) or various concentrations of D609 or a D609 prodrug (diluted in complete medium). After 48 h incubation, the plates were centrifuged to remove the supernatants from the culture, and 50 μl of MTT at a concentration of 5 mg/ml in phosphate-buffered saline (PBS) was added to each well. The plates were incubated for 4 h at 37° C. to allow for the formation of a colored formazan. The formazan was solubilized by lysing the cells with 100 μl of lysis buffer containing 20 (w/v) % dodecylsulfate and 50 (v/v) % N,N-dimethyl formamide, pH 4.7. Absorbance of the formazan was measured at 595 nm using a Vmax plate reader (Molecular Devices, Sunnyvale, Calif.). The viability of the cells was expressed as a percent of control calculated by the formula Ad/Ac×100, where Ad and Ac, represent the absorbance of drug-treated and untreated control cells, respectively, and expressed as a percentage of control.
In this study, p-nitrophenyl-phosphorylcholine (pNPP, 40 mM) was incubated with 2 U/ml phospholipase C (Type XI from B. cereus) in the presence or absence of various concentrations of inhibitors for 2 hrs at 37° C. The amount of the cleaved substrate pNPP was quantified by determination of the optical density at 410 nm using an ELISA reader. The results are expressed as percent of vehicle control and presented as means±SEM (n=3) (FIG. 9A). NBD-C6-ceramide and PC were incubated with U937 cell lysates containing 50 μg protein in the presence or absence of various concentrations of inhibitors for 30 min at 30° C. The formation of NBD-C6-sphingomyelin as analyzed by TLC and quantified by determination of the fluorescent intensity of NBD-C6-sphingomyelin using a phosphorimager. The results are expressed as percent of vehicle control (FIG. 9B). […]

[4] = tested on: Jurkat T-cell leukemia cells; test: MTT cell viability, Jurkat cells; format: cell-based, human
[5] = tested on: ceramide levels in U937 cells; test: Ceramide profile in U937 cells by ESI/MS/MS; format: cell-based, Human; settings: for increase in the level of total ceramide compared to vehicle-treated cells: 177 μM; for C14-Cer / C16-Cer / C18-Cer / C20-Cer / C24-Cer / C24:1-Cer / Total-Cer / dhC16-Cer: 177 µM, 4 h
Procedure: ESI/MS/MS analysis of ceramide was performed on a Thermo Finnigan TSQ 7000 triple quadruple mass spectrometer, operating in a multiple reaction monitoring (MRM) positive ionization mode. U937 cells (4×10^6/sample) were washed twice with PBS after they were harvested from cultures. […] An aliquot of the lipid extracts was taken for inorganic phosphate determination and the remainder was evaporated to dryness and reconstituted in 100 μL of methanol. The reconstituted samples were injected on the Surveyor/TSQ 7000 LC/MS system and gradient was eluted from the BDS Hypersil C8, 150×3.2 mm, 3 μm particle size column, with 1.0 mM methanolic ammonium formate/2 mM aqueous ammonium formate mobile phase system. Peaks for the target analytes and internal standards were collected and processed using the Xcalibur software system. Various species of ceramide were quantified using N-palmitoyl-D-erythro-sphingosine, C13 base (C13 ceramide) and N-heptadecanoyl-D-erythro-sphingosine, C18 base (C18 ceramide) as internal calibration standards. Calibration curves were constructed by plotting peak area ratios of synthetic standards corresponding to each target analyte with respect to the appropriate internal standard. The target analyte peak areas from the samples were similarly normalized to their respective internal standard then compared with the calibration curves using a linear regression model. The results are expressed as pmole ceramide/nmole lipid phosphate (Pi).

SMILES | apoptosis (sub-G0/1 cells) (U937 cells [1]) | LD50 [2] [µM] | LD50 (U937 cells [3]) [µM] | U937 cell death / cell viability (U937 cells [3]; 48 hours) | LD50 [4] [µM] | increase in the level of total ceramide compared to vehicle-treated cells [5] | C14-Cer [5] | C16-Cer [5] | C18-Cer [5] | C20-Cer [5] | C24-Cer [5] | C24:1-Cer [5] | Total-Cer [5] | dhC16-Cer [5]
S=C([S-])OC1CC2CC1C1CCCC21.[K+] (stereo not drawn) [Prodrug D609, Tricyclodecan-9-yl-xanthogenate] | capable of inducing apoptosis | 545.75 | 117 | induced significant cell death | 63.97 | about 1.61 fold | 0.038^a pmole ceramide/nmole lipid Pi | 1.612^a pmole ceramide/nmole lipid Pi | 0.213^a pmole ceramide/nmole lipid Pi | 0.036^a pmole ceramide/nmole lipid Pi | 0.416 pmole ceramide/nmole lipid Pi | 0.669^a pmole ceramide/nmole lipid Pi | 3.816^a pmole ceramide/nmole lipid Pi | 0.832^a pmole ceramide/nmole lipid Pi
CCCC(=O)OCSC(=S)OC1CC2CC1C1CCCC21 (stereo not drawn) [Prodrug 2, S-methyleneoxybutyryl D609] | significantly greater reduction in cell viability and increase in the sub-G0/1 cells than D609-treated cells | 87.10 | 56.6 |  | 44.26 | 1.84 fold | 0.054^a,b pmole ceramide/nmole lipid Pi | 1.713^a pmole ceramide/nmole lipid Pi | 0.262^a pmole ceramide/nmole lipid Pi | 0.031^a pmole ceramide/nmole lipid Pi | 0.482^a pmole ceramide/nmole lipid Pi | 0.863^a,b pmole ceramide/nmole lipid Pi | 4.358^a,b pmole ceramide/nmole lipid Pi | 0.951^a,b pmole ceramide/nmole lipid Pi
